From the supplement of paper PMC10307832

Legend:
Assay in all cases: relative viability (nuclei count vs DMSO), 5 days (fraction); higher = more cells survive
[1] = compound: C1=CC2=NC=CN=C2C=C1/C=C/3\C(=O)NC(=O)S3 + Cc1cc(Nc2cc(N3CCN(C)CC3)nc(Sc3ccc(NC(=O)C4CC4)cc3)n2)n[nH]1 [Tozasertib] (partner 0.1 µM)
Summary of the method: (§1)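 Lung cancer cell lines in 1536-well plates got either a single drug or a fixed anchor-drug dose together with five library-drug doses (not always all listed) in √10 steps, by pin tool, on the day after seeding. Nuclei were counted after 5 days, and relative viability is the treated-to-vehicle ratio of nuclei counts. Values are medians of duplicate plates.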

BGJ398 + Bortezomib = compound: CCN1CCN(c2ccc(Nc3cc(N(C)C(=O)Nc4c(Cl)c(OC)cc(OC)c4Cl)ncn3)cc2)CC1 [BGJ398] + CC(C)C[C@H](NC(=O)[C@H](Cc1ccccc1)NC(=O)c1cnccn1)B(O)O [Bortezomib] (partner 0.002 µM)
Summary of the method: as §1

BGJ398 + Foretinib = compound: CCN1CCN(c2ccc(Nc3cc(N(C)C(=O)Nc4c(Cl)c(OC)cc(OC)c4Cl)ncn3)cc2)CC1 [BGJ398] + COc1cc2c(Oc3ccc(NC(=O)C4(C(=O)Nc5ccc(F)cc5)CC4)cc3F)ccnc2cc1OCCCN1CCOCC1 [Foretinib] (partner 0.25 µM)
Summary of the method: as §1

BGJ398 + Linsitinib = compound: CCN1CCN(c2ccc(Nc3cc(N(C)C(=O)Nc4c(Cl)c(OC)cc(OC)c4Cl)ncn3)cc2)CC1 [BGJ398] + C[C@]1(O)C[C@@H](c2nc(-c3ccc4ccc(-c5ccccc5)nc4c3)c3c(N)nccn32)C1 [Linsitinib] (partner 1 µM)
Summary of the method: as §1

Cell Line | relative viability ([1]; first compound 0.02 µM) | relative viability ([1]; first compound 0.06325 µM) | relative viability ([1]; first compound 0.2 µM) | relative viability ([1]; first compound 0.6325 µM) | relative viability ([1]; first compound 2 µM) | relative viability (BGJ398 + Bortezomib; first compound 0.01 µM) | relative viability (BGJ398 + Bortezomib; first compound 0.03162 µM) | relative viability (BGJ398 + Bortezomib; first compound 0.1 µM) | relative viability (BGJ398 + Bortezomib; first compound 0.3162 µM) | relative viability (BGJ398 + Bortezomib; first compound 1 µM) | relative viability (BGJ398 + Foretinib; first compound 0.01 µM) | relative viability (BGJ398 + Foretinib; first compound 0.03162 µM) | relative viability (BGJ398 + Foretinib; first compound 0.1 µM) | relative viability (BGJ398 + Foretinib; first compound 0.3162 µM) | relative viability (BGJ398 + Foretinib; first compound 1 µM) | relative viability (BGJ398 + Linsitinib; first compound 0.01 µM) | relative viability (BGJ398 + Linsitinib; first compound 0.03162 µM) | relative viability (BGJ398 + Linsitinib; first compound 0.1 µM) | relative viability (BGJ398 + Linsitinib; first compound 0.3162 µM) | relative viability (BGJ398 + Linsitinib; first compound 1 µM)
NCI-H838 | 0.299 | 0.271 | 0.221 | 0.238 | 0.242 | 0.636 | 0.921 | 0.655 | 0.776 | 0.5 | 0.927 | 1.08 | 0.962 | 0.889 | 0.914 | 0.94 | 0.979 | 0.927 | 0.919 | 0.716
NCI-H1355 | 0.515 | 0.427 | 0.556 | 0.568 | 0.468 | 1.05 | 1.27 | 1.2 | 1.15 | 0.603 | 0.925 | 0.98 | 1.03 | 0.951 | 0.898 | 0.741 | 0.807 | 0.827 | 0.779 | 0.823
NCI-H1437 | 0.404 | 0.388 | 0.388 | 0.418 | 0.323 | 0.521 | 0.56 | 0.412 | 0.536 | 0.462 | 1.42 | 1.29 | 1.27 | 1.25 | 1.28 | 0.999 | 0.995 | 1.04 | 1.05 | 1.06
NCI-H1651 | 0.827 | 0.62 | 0.664 | 0.608 | 0.61 | 0.909 | 0.932 | 1.05 | 1 | 0.911 | 0.753 | 0.781 | 0.94 | 0.73 | 0.677 | 0.874 | 0.938 | 1.05 | 1.04 | 0.895
NCI-H1666 | 0.591 | 0.617 | 0.575 | 0.674 | 0.603 | 0.88 | 0.774 | 0.793 | 0.816 | 0.629 | 1.03 | 1.01 | 0.963 | 0.945 | 1.01 | 0.708 | 0.812 | 0.816 | 0.835 | 0.709
NCI-H1734 | 0.256 | 0.262 | 0.317 | 0.248 | 0.278 | 0.95 | 0.889 | 0.933 | 0.805 | 0.825 | 0.862 | 0.879 | 0.893 | 0.785 | 0.827 | 0.816 | 0.873 | 0.907 | 0.864 | 0.917
NCI-H1755 | 0.585 | 0.562 | 0.66 | 0.51 | 0.49 | 1 | 0.872 | 0.975 | 0.921 | 0.875 | 0.88 | 0.985 | 0.919 | 0.929 | 0.955 | 0.93 | 1.01 | 0.983 | 0.955 | 1.01
NCI-H1915 | 0.452 | 0.48 | 0.41 | 0.418 | 0.428 | 0.952 | 0.972 | 0.969 | 0.977 | 0.864 | 1.05 | 1.06 | 1.14 | 1.1 | 1.09 | 1.05 | 1.04 | 1.12 | 1.19 | 1.13
NCI-H1975 | 0.804 | 0.917 | 0.759 | 0.712 | 0.708 | 0.431 | 0.405 | 0.404 | 0.384 | 0.319 | 0.989 | 1.12 | 1.06 | 0.879 | 0.97 | 1.08 | 1.07 | 1.11 | 1.03 | 0.965
NCI-H1993 | 0.545 | 0.593 | 0.612 | 0.543 | 0.436 | 1.17 | 0.753 | 1.2 | 1.23 | 1.19 | 0.833 | 0.67 | 0.883 | 0.842 | 0.735 | 0.764 | 0.791 | 0.752 | 0.894 | 0.729
NCI-H2009 | 0.747 | 0.77 | 0.721 | 0.744 | 0.761 | 0.918 | 1.09 | 0.955 | 0.978 | 1.14 | 1.11 | 1.24 | 1.22 | 1.22 | 1.26 | 1.18 | 1.24 | 1.14 | 1.16 | 1.17
NCI-H2023 | 0.404 | 0.321 | 0.472 | 0.379 | 0.335 | 0.966 | 1.07 | 0.978 | 0.883 | 1.12 | 0.847 | 0.997 | 0.79 | 0.805 | 0.905 | 0.602 | 0.831 | 0.657 | 0.688 | 0.646
NCI-H2085 | 0.813 | 0.874 | 0.848 | 0.848 | 0.731 | 1.02 | 1.07 | 1.02 | 0.983 | 1.15 | 1 | 1.12 | 0.909 | 0.903 | 0.781 | 0.872 | 0.943 | 0.975 | 1.01 | 0.934
NCI-H2087 | 0.206 | 0.273 | 0.212 | 0.243 | 0.238 | 0.725 | 0.699 | 0.806 | 0.848 | 0.602 | 1.05 | 1.33 | 1.18 | 1.15 | 1.09 | 0.973 | 0.886 | 0.988 | 0.922 | 0.881
NCI-H2126 | 0.841 | 0.882 | 0.857 | 0.759 | 0.528 | 1.14 | 1.1 | 1.11 | 1.11 | 1.12 | 1.19 | 1.28 | 1.26 | 1.2 | 1.12 | 0.688 | 0.692 | 0.713 | 0.739 | 0.746
